Among the data in a melting point compilation (Tetko et al.; mined from patent text by program, amines drawn as free bases though some values may be those of a salt) are melting point values, retold here.

As for `COc1ccc(CC(=O)O)c(OCCc2ccccc2)c1`, the melting point fell in the range of 107 to 108 °C.
As to `COCCNC(=O)c1nc(NC(C)=O)c2cc(Cc3ccc(F)cc3)cnc2c1OCc1ccccc1`, the melting point was in the range of 147 to 149 °C.
The compound `Cc1c(C)c2c(c(C)c1O)CCC(C)(C)O2` displayed a melting point of 85 to 88 °C.
Compound `N=C(N)NCCc1ccc(OCCC2Oc3ccccc3N(Cc3cccc(OCc4ccccc4)c3)C2=O)cc1` (stereo not drawn) showed a melting point of 100 to 105 °C.
In the case of `COc1cc(OC)nc(C(=O)O)n1`, the melting point was in the range of 155 to 157 °C.
`CCCCCOc1cc(C(=O)O)cc([N+](=O)[O-])c1-c1ccccc1`: the melting point was 144 to 146 °C.
Regarding `COc1cc([N+](=O)[O-])c2ncccc2c1OCc1ccc(Cl)cc1`, the melting point lay in the range of 115 to 116 °C.
The value for `C=C(OCC)c1nc(-c2ccco2)c2ncn(Cc3ccc(OC)cc3)c2n1` was 144 to 145 °C.
In the case of `CCCCCCCCCCCCOC(C)c1ccc(C(=O)O)cc1` (single isomer, unassigned; (+)), the melting point is 49.5 to 50 °C.
In the case of `COc1cc(Cn2c(=O)n(C3CCCCC3)c3cc(Cl)ccc32)ccc1[N+](=O)[O-]`, the melting point is 176 °C.
In turn, `CCOC(=O)CCCN1CCC[C@H](NCc2ccccc2OC)[C@@H]1c1ccccc1` (relative stereo) gave a melting point of 75 to 90 °C.
The value for `COCCOc1nc(NC(C)=O)nc2ccc(Cl)nc12` was 135 °C; that for `COc1cc(Br)cc2c(Cl)cc(C)nc12` was 140 to 142 °C.
The compound `CCC(CC)C(NC(=O)c1ccc(Cl)cc1)NC(=NC#N)Nc1cccnc1` (stereo not drawn) gave a melting point of 185 to 187 °C.
Consider `CCCCCCCNC(=O)Nc1ccc(OC)cc1NC(=O)c1cc(C(C)(C)C)c(O)c(C(C)(C)C)c1`, for which the melting point lay in the range of 150 to 151 °C.
In turn, `O=C1Nc2cc(F)ccc2C1CCCCN1CCN(c2ccccn2)CC1` (stereo not drawn) had a melting point of 136 to 137 °C.
`Cc1nnc2n1-c1ccc(C#CCN3Cc4ccccc4C3=O)cc1C(c1ccccc1F)=NC2` had a melting point of 165 to 168 °C.
On to `CCN1c2ncc(CCc3ccncc3)cc2C(=O)N(C)c2ccc(N)nc21`, for which the melting point fell in the range of 94 to 97 °C.
On to `COc1ccc(C=C2SC(=O)N(CCc3ccccn3)C2=O)cc1-c1cc2c(cc1C)C(C)(C)CCC2(C)C`, for which the melting point was 170 to 171 °C.
For `CC(C)(C)OC(=O)C(Cc1c[nH]cn1)N(C(=O)OC(C)(C)C)C(=O)OC(C)(C)C` (stereo not drawn), the melting point came to 98 °C.
With `O=S(=O)(c1ccc(Cl)cc1)C1(c2nnn(Cc3ccccc3)n2)CCCCC1`, the melting point was 133 to 134 °C.
In the case of `CC(C)c1cccc(C(C)C)c1NC(=O)CNC(C)c1ccccn1` (stereo not drawn), the melting point was 99 to 101 °C.
The compound `O=C1CCC(N2Cc3cc(CNC(=O)c4cccc(C(F)(F)F)c4)ccc3C2=O)C(=O)N1` (stereo not drawn) gave a melting point of 244 to 246 °C.
As for `C=CCOC(=O)C1=C2CCSC[C@@H]2[C@@H]2/C(=C\C)C(=O)N12`, the figure is 195 to 225 °C; as for `CC(=NO)[C@H]1C[C@H](C(=O)OC(C)(C)C)N(C(=O)CNC(=O)Nc2cccc(C(=O)O)c2)[C@@H]1c1ccccc1` (racemic), 180 °C.
For `Cc1ccc(-c2cc(C(F)(F)F)nn2-c2ccc(S(N)(=O)=O)c(F)c2)cc1`, the melting point was in the range of 126 to 128 °C.
For `CC(NC(=O)OC(C#N)c1cccc(Oc2ccccc2)c1)c1cccc2ccccc12` (stereo not drawn), the melting point came to 122 °C.
`CC(=O)OC1CCC2(C)C(=CCC3C2CCC2(C)C(n4ncnn4)=CCC32)C1` (stereo not drawn) displayed a melting point of 155 to 156 °C.
As for `COc1ccc(C(C)CNC(=O)C(N)=O)cc1OC1CCCC1` (stereo not drawn), the figure is 175 to 176 °C.
The value for `COc1ccc(/C=C/c2nc3cc([N+](=O)[O-])ccc3[nH]2)cc1OC` was 223 to 225 °C; that for `CC(=O)OCC1(c2ccccc2)CCC(=O)CC1` was 74 to 79 °C; that for `N#CCc1ccc(F)cc1C(=O)O` was 140 °C.
In turn, `CCCCc1ncc(/C=C(\Cc2cccs2)C(=O)O)n1CCc1ccc(CC(=O)O)cc1` gave a melting point of 169 to 171 °C.
